Legend:
[1] = cited from earlier work
[2] = test system: carrageenan-induced rat paw edema; experiment: Carrageenan-induced rat paw edema test; type: in vivo
Procedure: Inflammatory pain in rats induced by carrageenan intraplantar injection Male Wistar rats (270-280 g) (Envigo, Italy), were housed 2-3 per cage under controlled illumination (12:12 h light:dark cycle; light on 06.00 h) and standard environmental conditions (room temperature 22±1° C., humidity 60±10%) for at least 1 week before experimental use. Rat chow and tap water were available ad libitum. The procedures were approved by the Animal Ethics Committee of University of Campania “Luigi Vanvitelli”. Animal care was in compliance with Italian Legislative Decree (D.L. 116/92) and European Commission Directive (O.J. of E.C. L358/1, 18/12/86) regulations on the protection of laboratory animals. All efforts were made to minimize animal suffering and the number of animals used.
Peripheral inflammatory pain was induced in the left hind paw of each animal by a single intraplantar injection of 1% A-carrageenan (100 μl for each rat in 0.9% NaCl). […] Edema was expressed as the mean increase in paw volume (ml) relative to control animals. The percentage inhibition of edema was calculated by the following equation: % inhibition of edema=(Vc−Vt/Vc)×100, where Vc is the edema volume in the control group and Vt is the edema volume in treated group.

in vivo = details: male, Sprague Dawley, rat, po
Text: Aim of the study was the determination of the brain penetration of Gabapentin in KLS-Gabapentin Co-crystal compared to the physical mixture of KLS and so Gabapentin and Gabapentin alone after administration in capsules in the rats.
Sprague Dawley male rat (body weights 310 gr at the time of the treatment) were used in this study. The animals were originally supplied by Harlan, Italy. Once receipt from the supplier, the animals were subjected to health examinations and acceptance. The animals were housed, in a group of three, in cages suitable for the species and were routinely kept in the following environment except for short periods of time where experimental procedures dictated otherwise. The animals were acclimatized to local housing conditions for approximately 5 days.
The experimental protocol consisted in the blood and brain tissue sampling on the animals according to the following Tables 12 and 13 and analysis of samples as described below.
Stock solutions of Ketoprofen and Gabapentin were prepared at 1 mg/mL in MeOH and a mix stock solution was prepared by dilution of the two mentioned before to reach a final concentration of 100 μg/mL of each analyte. Stock solutions of DF1681Y and Gabapentin Impurity A were prepared respectively at 2 mg/mL and 1 mg/mL in MeOH. A mixture of the two was prepared in ACN with a final so concentration of 5000 and 500 ng/mL respectively (mix IS). […]

[3] = in vivo; cited from earlier work
[4] = cited from earlier work; remark: listed apart in the source

Compound	Time to utmost level in plasma ([1]; after oral administration) [h]	Plasma protein binding ([1]; in vivo)	Excretion half-life ([1]; renal excretion)	Activity on inflammatory pain ([2]; Carrageenan inflammatory rat model)	Effect on carrageenan-evoked edema ([2]; FIGS. 13 and 15, oral, rat)	Kp at 2 h (in vivo)	Side effect: ataxia [3] [%]	Side effect: dizziness [3] [%]	Side effect: fatigue [3] [%]	Side effect: somnolence [3] [%]	pKa [4]
NCC1(CC(=O)O)CCCCC1 [Gabapentin]	3 to 4	does not attach to plasma proteins	roughly 6 hours	little active	less effective	0.378	13	18	11	20	
CC(C(=O)O)c1cccc(C(=O)c2ccccc2)c1 (racemic) [Ketoprofen, (RS)-2-(3-benzoylphenyl)-propionic acid]											4.08
